Experimental data: patent US20120276190A1 (priority 2009, published 2012)

How the values were obtained:
[1] = test system: SKOV3; test: WST-1 viability of SKOV3 cells; format: cell-based; details: with immunotoxin, data not shown
Experimental: The inhibition of protein synthesis in treated cells was assayed by the addition of 3H-leucine (2 μCi/mL) for 4 hours in 96-well plates. Filter mats and samples were used to count cells using a Wallac beta plate reader. Water-soluble tetrazolium-1 (WST-1; Roche) was added to 96-well plates at a final concentration of 10% and absorbance measured at 450 nm to measure cytotoxicity. Te CellTiter-Glo Luminescent Cell Viability Assay kit (Promega) was used to assay ATP. The Caspase-Glo kit from Promega was used to detect Caspase 3/7. Caspase 3 activity was measured using one of two fluorescent substrates Caspase 3 Fluorometric Assay Kit (R&D Systems) or Caspase 3 Fluorometric-KIT (Invitrogen). The results are reported in fluorescent units per microgram of cell protein. For short-exposure cell-killing assays: KB3-1 cells were seeded in six-well plates at a density of 5×10^4/mL. The next day, cells were treated for 4 hours with either immunotoxin alone, ABT-737 alone, or combinations of both as indicated. At the end of the treatment, the cells were washed with PBS, trypsinized, and re-plated and incubated for 6 more days. Finally, the cells were washed with PBS and then stained with methylene blue (0.5%) in methanol/water (50:50 by volume).

[2] = test system: Raji cells; format: cell-based
[3] = test system: KB3-1 cells; format: cell-based; details: with immunotoxin, data not shown
[4] = test system: H69AR cells; format: cell-based
[5] = test system: ATF4 in KB3-1 cells; test: ER stress response (ATF4 immunoblot) in KB3-1 cells; format: cell-based; details: 4 hours, ABT-737 10 μmol/L, DTT 10 mmol/L
Text: (§1) Immunoblot analysis is inadequate to detect the cellular uptake of immunotoxins, added at subnanomolar concentrations. Thus, we could not document directly that additional molecules of toxin were delivered to the cytosol. Instead, we sought other evidence that ABT-737 was directly or indirectly interacting with the ER. In various cell types, Bcl-2 family members are found associated with the ER (Oakes S A, et al., Proc Natl Acad Sci USA 2005; 102:105-10 and Scorrano L, et al., Science 2003; 300:135-9). To test if ABT-737 interacted with the ER and provoked an ER stress response, we incubated KB3-1 or DLD1 cells for 4 hours with either ABT-737 or with DTT; the latter being a well-known mediator of ER stress. Treated cell extracts were analyzed for the transcription factor ATF4 (Bernales S, Papa F R, Walter P. Annu Rev Cell Dev Biol 2006; 22:487-508). […] Overall, our results are consistent with ABT-737 acting on the ER and causing, either directly or indirectly, an increased translocation of PE- or CET-based immunotoxins to the cytosol.

[6] = test system: ATF4 in DLD1 cells; test: ER stress response (ATF4 immunoblot) in DLD1 cells; format: cell-based; details: 4 hours, ABT-737 10 μmol/L, DTT 10 mmol/L
Text: as §1

[7] = test system: caspase 3/7 in DLD1 cells; format: cell-based
[8] = target: CD22 (human) (UniProt P20273); test: cell-based or functional assay
UniProt P20273, sequence (P20273 20-847): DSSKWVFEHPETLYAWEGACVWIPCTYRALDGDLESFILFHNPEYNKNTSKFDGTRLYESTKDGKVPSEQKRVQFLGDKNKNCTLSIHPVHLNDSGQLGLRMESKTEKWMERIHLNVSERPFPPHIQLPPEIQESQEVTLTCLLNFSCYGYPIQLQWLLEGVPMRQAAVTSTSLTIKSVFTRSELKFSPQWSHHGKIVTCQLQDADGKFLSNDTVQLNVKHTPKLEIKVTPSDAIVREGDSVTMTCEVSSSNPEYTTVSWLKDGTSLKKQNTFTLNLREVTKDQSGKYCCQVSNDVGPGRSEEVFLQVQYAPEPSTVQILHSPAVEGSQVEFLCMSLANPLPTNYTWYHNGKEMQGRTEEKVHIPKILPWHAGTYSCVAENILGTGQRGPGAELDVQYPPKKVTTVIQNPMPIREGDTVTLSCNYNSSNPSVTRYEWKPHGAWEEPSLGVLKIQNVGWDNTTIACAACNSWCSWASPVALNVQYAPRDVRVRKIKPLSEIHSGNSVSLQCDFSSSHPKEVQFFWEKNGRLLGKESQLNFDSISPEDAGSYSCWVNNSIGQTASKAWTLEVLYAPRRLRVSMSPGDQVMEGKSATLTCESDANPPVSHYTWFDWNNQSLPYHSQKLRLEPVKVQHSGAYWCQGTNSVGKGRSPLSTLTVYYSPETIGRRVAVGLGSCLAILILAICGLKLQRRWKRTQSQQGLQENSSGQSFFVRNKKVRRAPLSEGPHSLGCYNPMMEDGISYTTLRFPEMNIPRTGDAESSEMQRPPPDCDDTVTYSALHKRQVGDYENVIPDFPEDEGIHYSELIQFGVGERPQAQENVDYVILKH

CC1(C)CCC(c2ccc(Cl)cc2)=C(CN2CCN(c3ccc(C(=O)NS(=O)(=O)c4ccc(N[C@H](CCN5CCOCC5)CSc5ccccc5)c(S(=O)(=O)C(F)(F)F)c4)cc3)CC2)C1 [ABT-263]
enhancement of SKOV3 killing [1]: similarly enhanced | apoptosis, ABT-263 alone [2]: little or no apoptosis | total apoptosis, in combination with BL22 [2]: 62% | total apoptosis, in combination with HA22 [2]: 68% | enhancement of KB3-1 killing [3]: similarly enhanced | effect of combination with HB21-PE40 [4]: synergistic and leads to cell death via apoptosis | sensitivity to killing, agent alone [4]: resistant

O[C@@H](CS)[C@@H](O)CS [DTT]
ER stress response (ATF4) [5]: strongly upregulated | ER stress response (ATF4) [6]: strongly upregulated

CN[C@@H]1C[C@H]2O[C@@](C)([C@@H]1OC)n1c3ccccc3c3c4c(c5c6ccccc6n2c5c31)C(=O)NC4 [staurosporine]
apoptosis, positive control for generating maximal apoptosis [2]: ~74%

CC(C)C[C@H](NC(=O)[C@H](Cc1ccccc1)NC(=O)c1cnccn1)B(O)O [velcade, bortezomib]
apoptosis by caspase 3/7 activity [7]: increased caspase 3/7 activity

BL22 (from UniProt P11439 278-389; P11439 406-638)
total apoptosis of Raji cells in 24 hrs (Annexin V / 7-AAD flow cytometry) [8]: 47%
